This is an account of results in patent US10570129B2 (Zoetis Services LLC, priority 2015, dated 2020).

In one test the test system is Haemonchus contortus L3. Description: microbe, parasite or virus in culture. It counts as cell-based. To be noted: Haemonchus contortus, 96 h, read-out: HcL3 Minimal Effective Concentration (MEC).
In the next test the test system is D. immitis microfilariae. Description: Dirofilaria immitis, microfilariae (DiMF) in vitro motility assay. It counts as cell-based. To be noted: Dirofilaria immitis, 72 h, read-out: DiMF minimally effective dose (MEC).

As for `NC(=O)c1ccc2c3c(n(C(=O)NCc4ccnc(Cl)c4)c2c1)CCN(C/C=C/c1ccc(F)cc1)C3` [Example 466, (E)-N^5-((2-chloropyridin-4-yl)methyl)-2-(3-(4-fluorophenyl)allyl)-1,2,3,4-tetrahydro-5H-pyrido[4,3-b]indole-5,7-dicarboxamide], the minimal effective concentration in the test on Haemonchus contortus L3 is > 100 µM; with D. immitis microfilariae, 3.3 µM.
Regarding `NC(=O)c1ccc2c(c1)c1c(n2C(=O)NCc2ccnc(Cl)c2)CCN(C/C=C/c2ccc(Cl)c(F)c2)C1` [Example 467, (E)-2-(3-(4-chloro-3-fluorophenyl)allyl)-N^5-((2-chloropyridin-4-yl)methyl)-1,2,3,4-tetrahydro-5H-pyrido[4,3-b]indole-5,8-dicarboxamide], the minimal effective concentration in the test with Haemonchus contortus L3 was > 100 µM; in the test with D. immitis microfilariae, 1 µM.
Consider `CCOc1cc2c(cc1Br)c1c(n2C(=O)NCc2ccnc(Cl)c2)CCN(C/C=C/c2ccc(Cl)cc2)C1` [Example 468, (E)-8-bromo-2-(3-(4-chlorophenyl)allyl)-N-((2-chloropyridin-4-yl)methyl)-7-ethoxy-1,2,3,4-tetrahydro-5H-pyrido[4,3-b]indole-5-carboxamide], for which the minimal effective concentration in the test with Haemonchus contortus L3 came to 0.2 µM; in the test on D. immitis microfilariae it was 1.8 µM.
The corresponding values for `O=C(NCc1ccnc(Cl)c1)n1c2c(c3cc(F)c(OC(F)(F)F)cc31)CN(C/C=C/c1ccc(Cl)cc1)CC2` [Example 469, (E)-2-(3-(4-chlorophenyl)allyl)-N-((2-chloropyridin-4-yl)methyl)-8-fluoro-7-(trifluoromethoxy)-1,2,3,4-tetrahydro-5H-pyrido[4,3-b]indole-5-carboxamide] are 1 µM and > 100 µM.
In the same order, the values of `O=C(NCc1ccnc(Cl)c1)n1c2c(c3cc(F)c(OC(F)(F)F)cc31)CN(C/C=C/c1ccc(F)cc1)CC2` [Example 471, (E)-N-((2-chloropyridin-4-yl)methyl)-8-fluoro-2-(3-(4-fluorophenyl)allyl)-7-(trifluoromethoxy)-1,2,3,4-tetrahydro-5H-pyrido[4,3-b]indole-5-carboxamide] are 0.3 µM and 10 µM.
With `O=C(NCc1ccnc(F)c1)n1c2c(c3cc(F)c(OC(F)(F)F)cc31)CN(C/C=C/c1ccc(Cl)cc1)CC2` [Example 472, (E)-2-(3-(4-chlorophenyl)allyl)-8-fluoro-N-((2-fluoropyridin-4-yl)methyl)-7-(trifluoromethoxy)-1,2,3,4-tetrahydro-5H-pyrido[4,3-b]indole-5-carboxamide], the minimal effective concentration in the test with Haemonchus contortus L3 was found to be 1 µM; in the test with D. immitis microfilariae it was 10 µM.
For `O=C(NCc1ccnc(Cl)c1)n1c2c(c3cc4c(cc31)COC4)CN(C/C=C/c1ccc(C(F)(F)F)cn1)CC2` [Example 474, (E)-N-((2-chloropyridin-4-yl)methyl)-8-(3-(5-(trifluoromethyl)pyridin-2-yl)allyl)-1,3,6,7,8,9-hexahydro-5H-furo[3,4-f]pyrido[4,3-b]indole-5-carboxamide], the minimal effective concentration was determined as 0.2 µM in the test with Haemonchus contortus L3 and 10 µM with D. immitis microfilariae.
In the same order, the values of `N#Cc1ccc(/C=C/CN2CCc3c(c4cc5c(cc4n3C(=O)NCc3ccnc(Cl)c3)COC5)C2)cc1` [Example 479, (E)-N-((2-chloropyridin-4-yl)methyl)-8-(3-(4-cyanophenyl)allyl)-1,3,6,7,8,9-hexahydro-5H-furo[3,4-f]pyrido[4,3-b]indole-5-carboxamide] are 1 µM and > 100 µM.
On to `O=C(NCc1ccnc(Cl)c1)n1c2c(c3cc4c(cc31)COC4)CN(C/C=C/c1ccc(Cl)cc1)CC2` [Example 480, (E)-8-(3-(4-chlorophenyl)allyl)-N-((2-chloropyridin-4-yl)methyl)-1,3,6,7,8,9-hexahydro-5H-furo[3,4-f]pyrido[4,3-b]indole-5-carboxamide], for which the minimal effective concentration worked out at 0.3 µM in the test with Haemonchus contortus L3 and 3.3 µM with D. immitis microfilariae.
As to `O=C(NCc1ccnc(Cl)c1)n1c2c(c3cc4c(cc31)COC4)CN(C/C=C/c1ccc(C(F)(F)F)cc1)CC2` [Example 482, (E)-N-((2-chloropyridin-4-yl)methyl)-8-(3-(4-(trifluoromethyl)phenyl)allyl)-1,3,6,7,8,9-hexahydro-5H-furo[3,4-f]pyrido[4,3-b]indole-5-carboxamide], the minimal effective concentration in the test on Haemonchus contortus L3 was found to be 1.8 µM; in the test on D. immitis microfilariae, 3.3 µM.
The corresponding values for `O=C(NCc1ccnc(Cl)c1)n1c2c(c3c4c(ccc31)COC4)CN(C/C=C/c1ccc(Cl)cc1)CC2` [Example 490, (E)-9-(3-(4-chlorophenyl)allyl)-N-((2-chloropyridin-4-yl)methyl)-1,3,7,8,9,10-hexahydro-6H-furo[3,4-e]pyrido[4,3-b]indole-6-carboxamide] are 0.2 µM and 10 µM.
Turning to `CSc1cc2c3c(n(C(=O)NCc4ccnc(Cl)c4)c2cc1C#N)CCN(C/C=C/c1ccc(Cl)cc1)C3` [Example 491, (E)-2-(3-(4-chlorophenyl)allyl)-N-((2-chloropyridin-4-yl)methyl)-7-cyano-8-(methylthio)-1,2,3,4-tetrahydro-5H-pyrido[4,3-b]indole-5-carboxamide], the minimal effective concentration in the test with Haemonchus contortus L3 was 1 µM; with D. immitis microfilariae, 18.2 µM.
In the case of `O=C(NCc1ccnc(Cl)c1)n1c2c(c3cc(Br)c(OC(F)(F)F)cc31)CN(C/C=C/c1ccc(Cl)cc1)CC2` [Example 492, (E)-8-bromo-2-(3-(4-chlorophenyl)allyl)-N-((2-chloropyridin-4-yl)methyl)-7-(trifluoromethoxy)-1,2,3,4-tetrahydro-5H-pyrido[4,3-b]indole-5-carboxamide], the minimal effective concentration is 1.8 µM with Haemonchus contortus L3 and 0.5 µM in the test on D. immitis microfilariae.
Take `COc1cc2c3c(n(C(=O)NCc4ccnc(Cl)c4)c2cc1C#N)CCN(C/C=C/c1ccc(Cl)cc1)C3` [Example 493, (E)-2-(3-(4-chlorophenyl)allyl)-N-((2-chloropyridin-4-yl)methyl)-7-cyano-8-methoxy-1,2,3,4-tetrahydro-5H-pyrido[4,3-b]indole-5-carboxamide]: the values for the minimal effective concentration with Haemonchus contortus L3 and in the test on D. immitis microfilariae were 1 µM and 5.7 µM, respectively.
With `Cc1cc2c(cc1OC(F)(F)F)c1c(n2C(=O)NCc2ccnc(Cl)c2)CCN(C/C=C/c2ccc(Cl)cc2)C1` [Example 494, (E)-2-(3-(4-chlorophenyl)allyl)-N-((2-chloropyridin-4-yl)methyl)-7-methyl-8-(trifluoromethoxy)-1,2,3,4-tetrahydro-5H-pyrido[4,3-b]indole-5-carboxamide], the results for the minimal effective concentration with Haemonchus contortus L3 and in the test on D. immitis microfilariae were 1 µM and > 100 µM, respectively.
`O=C(NCc1ccnc(Cl)c1)n1c2c(c3cc(OC(F)(F)F)c(F)cc31)CN(C/C=C/c1ccc(Cl)cc1)CC2` [Example 495, (E)-2-(3-(4-chlorophenyl)allyl)-N-((2-chloropyridin-4-yl)methyl)-7-fluoro-8-(trifluoromethoxy)-1,2,3,4-tetrahydro-5H-pyrido[4,3-b]indole-5-carboxamide]: the values for the minimal effective concentration in the test with Haemonchus contortus L3 and with D. immitis microfilariae were 1 µM and 10 µM, respectively.
In the same order, the values of `O=C(NCc1ccnc(Cl)c1)n1c2c(c3cc(OC(F)(F)F)c(Cl)cc31)CN(C/C=C/c1ccc(Cl)cc1)CC2` [Example 496, (E)-7-chloro-2-(3-(4-chlorophenyl)allyl)-N-((2-chloropyridin-4-yl)methyl)-8-(trifluoromethoxy)-1,2,3,4-tetrahydro-5H-pyrido[4,3-b]indole-5-carboxamide] are 1 µM and 5.7 µM.
Consider `O=C(NCc1ccnc(Cl)c1)n1c2c(c3cc(OC(F)(F)F)c(Br)cc31)CN(C/C=C/c1ccc(Cl)cc1)CC2` [Example 497, (E)-7-bromo-2-(3-(4-chlorophenyl)allyl)-N-((2-chloropyridin-4-yl)methyl)-8-(trifluoromethoxy)-1,2,3,4-tetrahydro-5H-pyrido[4,3-b]indole-5-carboxamide], for which the minimal effective concentration came to 1 µM in the test with Haemonchus contortus L3 and 5.7 µM in the test with D. immitis microfilariae.
For `O=C(NCc1ccnc(Cl)c1)n1c2c(c3cc(Br)c(C(F)(F)F)cc31)CN(C/C=C/c1ccc(Cl)cc1)CC2` [Example 498, (E)-8-bromo-2-(3-(4-chlorophenyl)allyl)-N-((2-chloropyridin-4-yl)methyl)-7-(trifluoromethyl)-1,2,3,4-tetrahydro-5H-pyrido[4,3-b]indole-5-carboxamide], the minimal effective concentration in the test with Haemonchus contortus L3 stood at 1.8 µM; with D. immitis microfilariae, 5.7 µM.
Regarding `O=C(NCc1ccnc(Cl)c1)n1c2c(c3cc(Cl)c(OC(F)(F)F)cc31)CN(C/C=C/c1ccc(Cl)cc1)CC2` [Example 499, (E)-8-chloro-2-(3-(4-chlorophenyl)allyl)-N-((2-chloropyridin-4-yl)methyl)-7-(trifluoromethoxy)-1,2,3,4-tetrahydro-5H-pyrido[4,3-b]indole-5-carboxamide], the results for the minimal effective concentration in the test with Haemonchus contortus L3 and with D. immitis microfilariae were 1.8 µM and > 100 µM, respectively.
The corresponding values for `O=C(NCc1ccnc(Cl)c1)n1c2c(c3cc(-n4ccccc4=O)ccc31)CN(C/C=C/c1ccc(Cl)cc1)CC2` [Example 500, (E)-2-(3-(4-chlorophenyl)allyl)-N-((2-chloropyridin-4-yl)methyl)-8-(2-oxopyridin-1 (2H)-yl)-1,2,3,4-tetrahydro-5H-pyrido[4,3-b]indole-5-carboxamide] are > 100 µM and 5.7 µM.
Regarding `O=C(NCc1ccnc(F)c1)n1c2c(c3cc(C4CC4)ccc31)CN(C/C=C/c1ccc(Cl)cc1)CC2` [Example 501, (E)-2-(3-(4-chlorophenyl)allyl)-8-cyclopropyl-N-((2-fluoropyridin-4-yl)methyl)-1,2,3,4-tetrahydro-5H-pyrido[4,3-b]indole-5-carboxamide], the minimal effective concentration was found to be 3.3 µM in the test with Haemonchus contortus L3 and 18.2 µM in the test on D. immitis microfilariae.
